Source: US8227428B2, “Anti-infammatory macrolide” (Glaxo Group Limited, priority 2009, dated 2012)
Converted amounts (≈) assume the structure as drawn.

Legend:
[1] = Stability in buffer solutions pH 2 to pH 8 at 25° C.; format: physicochemical
Method: Stability in buffer solutions pH 2 to pH 8 at 25° C., and in bio-relevant media (SGF pH 1.6, Fasted SIF pH 6.5 and Fed SIF pH 5.0) at 37° C., during 24 hours is monitored. The samples are analysed by LC/MS.
Buffer Solutions and Physiologically Relevant Media Used in Stability Assay:
LC Conditions: Instrument HP1100
Column: Waters XBridge C18, 2.1×50 mm, 3.5 μm
Guard column: Waters XBridge C18, 2.1×10 mm, 3.5 μm
• A) 0.1% HCOOH/H2O • B) 0.1% HCOOH/CH3CN Gradient Timetable: […]
Flow: 0.3 mL/min Column temp.: 25° C. Sample temp.: 25° C. (for stability assay in buffer solutions) • 37° C. (for stability assay in bio-relevant media) Injector volume: 3 μL (without injection program) MS Conditions: Instrument HP MS API-ES, positive ion mode Mass Range: 150-1500 Fragmentor: 100 Gain: 1.0 Treshold: 150 Step size: 0.20 Gas Temperature: 350° C. Drying Gas Flow: 13 L/min Nebulizer Pressure: 35 psig Capillary Voltage Positive 4000 V • Negative 4000 V Sample Preparation: a) For Stability Assay in Buffer Solutions
Compounds are dissolved in CH3CN to produce a 1 mg/mL stock solution. The stock solution is diluted to a concentration of 0.2 mg/mL (1 mL solution in 4 mL buffer) with appropriate buffer to produce a working solution.
Each solution at each pH is then dispatched into vials that are sealed and stored at room temperature in order to be analyzed at the proper time point. Before analysis, pH values of prepared sample solutions are checked and adjusted if neccessary.

[2] = tested on: Streptococcus pneumoniae ATCC49619; assay: Anti-bacterial screening, broth microdilution MIC; format: cell-based; details: read-out: minimal inhibitory concentration (MIC)
Method: (§1) Whole-cell antimicrobial activity of compounds against clinically relevant bacteria (Staphylococcus aureus ATCC13709, Streptococcus pneumoniae ATCC49619, Streptococcus pyogenes ATCC700294, Moraxella catarrhalis ATCC23246, Haemophilus influenzae ATCC49247 and Escherichia coli ATCC25922) is determined by broth microdilution using the Clinical and Laboratory Standards (CLSI) recommended procedure (Document M7-[…], Methods for Dilution Susceptibility Tests for Bacteria that Grow Aerobically). Compounds are dissolved in DMSO to produce a 50 mM stock solution. The stock solution is diluted to a concentration of 128 μg/mL in appropriate media (Haemophilus Test Medium for Haemophilus influenzae, Mueller-Hinton Broth for Staphylococcus aureus, Moraxella catarrhalis and Escherichia coli, and Mueller-Hinton Broth supplemented with 5% horse serum for Streptococcus pyogenes and Streptococcus pneumoniae) to produce a working solution. A Tecan Genesis 150 Workstation (Tecan Group Ltd. Mannedorf, Switzerland) is used to prepare serial two-fold dilutions (50 μL aliquots) of the working solution in a U-shape bottom 96 well microtitre plate. After the compounds are diluted, a 50 μL aliquot of the test isolate ( 1×10^6 cfu/ml) is added to each well of the microtitre plate. The final test concentrations range from 0.125-64 μg/mL. Inoculated plates are incubated at 35° C. in ambient air for 18 to 24 hours. The minimum inhibitory concentration (MIC) is determined as the lowest concentration of compound that inhibited visible growth.

[3] = tested on: Streptococcus pyogenes ATCC700294; assay: Anti-bacterial screening, broth microdilution MIC; format: cell-based; details: read-out: minimal inhibitory concentration (MIC)
Method: as §1

[4] = tested on: Moraxella catarrhalis ATCC23246; assay: Anti-bacterial screening, broth microdilution MIC; format: cell-based; details: read-out: minimal inhibitory concentration (MIC)
Method: as §1

[5] = tested on: Haemophilus influenzae ATCC49247; assay: Anti-bacterial screening, broth microdilution MIC; format: cell-based; details: read-out: minimal inhibitory concentration (MIC)
Method: as §1

[6] = tested on: Escherichia coli ATCC25922; assay: Anti-bacterial screening, broth microdilution MIC; format: cell-based; details: read-out: minimal inhibitory concentration (MIC)
Method: as §1

[7] = tested on: Staphylococcus aureus ATCC13709; assay: Anti-bacterial screening, broth microdilution MIC; format: cell-based; details: read-out: minimal inhibitory concentration (MIC)
Method: as §1

In the case of `CC[C@H]1OC(=O)[C@H](C)[C@@H](O[C@H]2C[C@@](C)(OC)[C@@H](OC(=O)CN(CC)CC)[C@H](C)O2)[C@H](C)[C@@H](O[C@@H]2O[C@H](C)C[C@H](N(C)C)[C@H]2O)[C@](C)(OC)C[C@@H](C)C(=O)N[C@H](C)[C@@H](O)[C@]1(C)O` [Example 3, 4″-O-(2-diethylaminoethanoyl)-6-O-methyl-9a-aza-9a-homoerythromycin A], the “stability in buffers pH 2 to 8” value ([1]; 25° C., during 24 hours) was “showed stability”, the “Percentage (Area %) of the compound observed in buffers” value (from here on “Percentage (Area %)”) ([1]; pH 2, 25° C., 2 h) was 99.4 Area % and the “Percentage (Area %)” value ([1]; pH 2, 25° C., 4 h) was 99.5 Area %. For the same compound, the “Percentage (Area %)” value ([1]; pH 2, 25° C., 6 h) was 99.5 Area %, the “Percentage (Area %)” value ([1]; pH 2, 25° C., 8 h) was 99.5 Area % and the “Percentage (Area %)” value ([1]; pH 2, 25° C., 12 h) was 99.6 Area %. The “Percentage (Area %)” value ([1]; pH 2, 25° C., 14 h) was 99.6 Area %, the “Percentage (Area %)” value ([1]; pH 2, 25° C., 18 h) was 99.6 Area % and the “Percentage (Area %)” value ([1]; pH 2, 25° C., 20 h) was 99.5 Area %. For the same compound, the “Percentage (Area %)” value ([1]; pH 2, 25° C., 22 h) was 99.5 Area %, the “Percentage (Area %)” value ([1]; pH 2, 25° C., 24 h) was 99.5 Area % and the “Percentage (Area %)” value ([1]; pH 2, 25° C., Initial) was 100 Area %. For the same compound, the “Percentage (Area %)” value ([1]; pH 3, 25° C., 2 h) was 99.8 Area %, the “Percentage (Area %)” value ([1]; pH 3, 25° C., 4 h) was 99.6 Area % and the “Percentage (Area %)” value ([1]; pH 3, 25° C., 6 h) was 99.5 Area %. For the same compound, the “Percentage (Area %)” value ([1]; pH 3, 25° C., 8 h) was 99.8 Area %, the “Percentage (Area %)” value ([1]; pH 3, 25° C., 12 h) was 99.6 Area % and the “Percentage (Area %)” value ([1]; pH 3, 25° C., 14 h) was 99.8 Area %. For the same compound, the “Percentage (Area %)” value ([1]; pH 3, 25° C., 18 h) was 99.7 Area %, the “Percentage (Area %)” value ([1]; pH 3, 25° C., 20 h) was 99.6 Area % and the “Percentage (Area %)” value ([1]; pH 3, 25° C., 22 h) was 99.4 Area %. The “Percentage (Area %)” value ([1]; pH 3, 25° C., 24 h) was 99.4 Area %, the “Percentage (Area %)” value ([1]; pH 3, 25° C., Initial) was 100 Area % and the “Percentage (Area %)” value ([1]; pH 4, 25° C., 2 h) was 99.1 Area %. The “Percentage (Area %)” value ([1]; pH 4, 25° C., 4 h) was 99.0 Area %, the “Percentage (Area %)” value ([1]; pH 4, 25° C., 6 h) was 99.1 Area % and the “Percentage (Area %)” value ([1]; pH 4, 25° C., 8 h) was 99.2 Area %. The “Percentage (Area %)” value ([1]; pH 4, 25° C., 12 h) was 99.2 Area %, the “Percentage (Area %)” value ([1]; pH 4, 25° C., 14 h) was 99.2 Area % and the “Percentage (Area %)” value ([1]; pH 4, 25° C., 18 h) was 99.2 Area %. For the same compound, the “Percentage (Area %)” value ([1]; pH 4, 25° C., 20 h) was 98.9 Area %, the “Percentage (Area %)” value ([1]; pH 4, 25° C., 22 h) was 99.1 Area % and the “Percentage (Area %)” value ([1]; pH 4, 25° C., 24 h) was 99.2 Area %. For the same compound, the “Percentage (Area %)” value ([1]; pH 4, 25° C., Initial) was 100 Area %, the “Percentage (Area %)” value ([1]; pH 5, 25° C., 2 h) was 100 Area % and the “Percentage (Area %)” value ([1]; pH 5, 25° C., 4 h) was 99.9 Area %. For the same compound, the “Percentage (Area %)” value ([1]; pH 5, 25° C., 6 h) was 99.9 Area %, the “Percentage (Area %)” value ([1]; pH 5, 25° C., 8 h) was 99.9 Area % and the “Percentage (Area %)” value ([1]; pH 5, 25° C., 12 h) was 99.9 Area %. For the same compound, the “Percentage (Area %)” value ([1]; pH 5, 25° C., 14 h) was 99.9 Area %, the “Percentage (Area %)” value ([1]; pH 5, 25° C., 18 h) was 99.9 Area % and the “Percentage (Area %)” value ([1]; pH 5, 25° C., 20 h) was 99.8 Area %. The “Percentage (Area %)” value ([1]; pH 5, 25° C., 22 h) was 99.9 Area %, the “Percentage (Area %)” value ([1]; pH 5, 25° C., 24 h) was 99.9 Area % and the “Percentage (Area %)” value ([1]; pH 5, 25° C., Initial) was 100 Area %. For the same compound, the “Percentage (Area %)” value ([1]; pH 6, 25° C., 2 h) was 100 Area %, the “Percentage (Area %)” value ([1]; pH 6, 25° C., 4 h) was 100 Area % and the “Percentage (Area %)” value ([1]; pH 6, 25° C., 6 h) was 100 Area %. For the same compound, the “Percentage (Area %)” value ([1]; pH 6, 25° C., 8 h) was 100 Area %, the “Percentage (Area %)” value ([1]; pH 6, 25° C., 12 h) was 99.9 Area % and the “Percentage (Area %)” value ([1]; pH 6, 25° C., 14 h) was 99.8 Area %. The “Percentage (Area %)” value ([1]; pH 6, 25° C., 20 h) was 99.7 Area %, the “Percentage (Area %)” value ([1]; pH 6, 25° C., 22 h) was 99.7 Area % and the “Percentage (Area %)” value ([1]; pH 6, 25° C., 24 h) was 99.7 Area %. For the same compound, the “Percentage (Area %)” value ([1]; pH 6, 25° C., Initial) was 100 Area %, the “Percentage (Area %)” value ([1]; pH 7, 25° C., 2 h) was 100 Area % and the “Percentage (Area %)” value ([1]; pH 7, 25° C., 4 h) was 99.9 Area %. The “Percentage (Area %)” value ([1]; pH 7, 25° C., 6 h) was 99.9 Area %, the “Percentage (Area %)” value ([1]; pH 7, 25° C., 8 h) was 99.9 Area % and the “Percentage (Area %)” value ([1]; pH 7, 25° C., 12 h) was 99.7 Area %. The “Percentage (Area %)” value ([1]; pH 7, 25° C., 14 h) was 99.7 Area %, the “Percentage (Area %)” value ([1]; pH 7, 25° C., 18 h) was 99.8 Area % and the “Percentage (Area %)” value ([1]; pH 7, 25° C., 20 h) was 98.8 Area %. For the same compound, the “Percentage (Area %)” value ([1]; pH 7, 25° C., 22 h) was 99.7 Area %, the “Percentage (Area %)” value ([1]; pH 7, 25° C., 24 h) was 98.7 Area % and the “Percentage (Area %)” value ([1]; pH 7, 25° C., Initial) was 100 Area %. For the same compound, the “Percentage (Area %)” value ([1]; pH 8, 25° C., 2 h) was 99.9 Area %, the “Percentage (Area %)” value ([1]; pH 8, 25° C., 4 h) was 99.9 Area % and the “Percentage (Area %)” value ([1]; pH 8, 25° C., 6 h) was 99.9 Area %. For the same compound, the “Percentage (Area %)” value ([1]; pH 8, 25° C., 8 h) was 99.7 Area %, the “Percentage (Area %)” value ([1]; pH 8, 25° C., 12 h) was 99.5 Area % and the “Percentage (Area %)” value ([1]; pH 8, 25° C., 14 h) was 99.4 Area %. For the same compound, the “Percentage (Area %)” value ([1]; pH 8, 25° C., 18 h) was 98.4 Area %, the “Percentage (Area %)” value ([1]; pH 8, 25° C., 20 h) was 98.3 Area % and the “Percentage (Area %)” value ([1]; pH 8, 25° C., 22 h) was 98.2 Area %. The “Percentage (Area %)” value ([1]; pH 8, 25° C., 24 h) was 98.2 Area %, the “Percentage (Area %)” value ([1]; pH 8, 25° C., Initial) was 100 Area % and the MIC [2] was 8 µg/mL (≈ 9.13 µM). It also gave an MIC [3] greater than 64 µg/mL, an MIC [4] of 8 µg/mL (≈ 9.13 µM) and an MIC [5] greater than 64 µg/mL. It also gave an MIC [6] greater than 64 µg/mL and an MIC [7] greater than 64 µg/mL.
